Laboratory results from PMC5557489, “Computational and experimental analysis of short peptide motifs for enzyme inhibition” (PLoS ONE, 2017).
Like-named read-outs stand apart in the source and are kept apart here. Ends that are not written are not given here.

Biological target: T1, β-galactosidase (β-Gal) (Escherichia coli, UniProt P00722)
T1 construct: purchased Sigma (St. Louis, MO)
Test: biochemical
Type: biochemical
Method: Solution-based enzyme assays were performed on SpectraMax M5 96 well plate readers (Molecular Device, Sunnyvale, CA) as described previously.[13] Briefly, peptides were first incubated with enzyme for 20 minutes, then the substrate solution was added into the wells to measure the enzyme activity, including at least three replicates per peptide. The β-gal catalyzed hydrolysis of RBG was fluorescently monitored at 590 nm (resorufin) with the excitation at 540 nm. The velocity of the reaction was determined by the initial velocity of the linear reaction. The IC50 of each inhibitor was determined by fitting the concentration vs. inhibition curve to the function ‘Fit LogIC50’ as defined in the program GraphPad Prism 7 using the fitting equation “Y = Bottom+(Top-Bottom)/(1+10^(X-LogIC50))”.
The enzyme inhibition was also quantitatively characterized using the inhibition percentage that was calculated using the following equation: Inhibition Percentage = (Activityuninhibited− Activityinhibited)/ Activityuninhibited× 100% […]
Fluorescein di-β-D-galactopyranoside (FDG), resorufin β-D-galactopyranoside (RBG) and Alexa Fluor 647 (Alexa 647) were purchased from Invitrogen (Eugene, OR). Phenylethyl β-D-thiogalactoside (PETG), β-galactosidase (β-Gal), phosphate buffered saline (PBS) and tris buffered saline (TBS) were obtained from Sigma (St. Louis, MO). A 4 mg/mL stock solution of β-Gal was prepared in 10 mM potassium phosphate buffer with 0.1 mM MgCl2 at pH 7.4. A 2 mg/mL stock solution of peptide was first prepared in pure water, and then diluted in phosphate buffer to the desired concentration. Custom peptides were purchased from Sigma.

T1 sequence (P00722 2-1024): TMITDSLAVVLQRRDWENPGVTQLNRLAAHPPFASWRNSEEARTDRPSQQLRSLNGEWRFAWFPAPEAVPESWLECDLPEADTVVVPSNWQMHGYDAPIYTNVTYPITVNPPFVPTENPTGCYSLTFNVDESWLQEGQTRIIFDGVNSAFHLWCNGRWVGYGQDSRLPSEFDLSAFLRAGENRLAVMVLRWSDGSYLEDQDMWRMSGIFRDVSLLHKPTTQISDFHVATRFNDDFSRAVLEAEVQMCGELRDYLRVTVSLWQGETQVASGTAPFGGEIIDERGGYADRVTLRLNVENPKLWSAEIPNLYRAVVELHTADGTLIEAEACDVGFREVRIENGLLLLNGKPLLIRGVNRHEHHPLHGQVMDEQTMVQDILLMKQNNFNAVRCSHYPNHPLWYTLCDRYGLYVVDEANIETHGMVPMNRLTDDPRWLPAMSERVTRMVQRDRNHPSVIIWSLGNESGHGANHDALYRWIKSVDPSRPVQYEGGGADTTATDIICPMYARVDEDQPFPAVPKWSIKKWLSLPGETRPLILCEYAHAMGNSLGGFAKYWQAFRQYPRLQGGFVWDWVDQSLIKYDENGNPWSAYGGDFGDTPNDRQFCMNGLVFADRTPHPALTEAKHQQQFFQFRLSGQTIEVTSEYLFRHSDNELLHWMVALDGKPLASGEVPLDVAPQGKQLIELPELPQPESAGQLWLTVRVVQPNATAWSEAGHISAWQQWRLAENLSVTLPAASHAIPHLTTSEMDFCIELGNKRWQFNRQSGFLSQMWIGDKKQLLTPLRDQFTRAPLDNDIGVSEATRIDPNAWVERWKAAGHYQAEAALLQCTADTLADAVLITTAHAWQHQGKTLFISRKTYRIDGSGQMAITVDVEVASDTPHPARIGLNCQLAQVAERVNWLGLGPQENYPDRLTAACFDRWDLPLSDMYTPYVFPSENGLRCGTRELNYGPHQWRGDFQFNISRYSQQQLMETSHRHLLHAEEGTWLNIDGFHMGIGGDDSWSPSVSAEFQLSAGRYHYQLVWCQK

Row | Compound | IC50 [µM] | further results
1 | OC[C@H]1O[C@@H](SCCc2ccccc2)[C@H](O)[C@@H](O)[C@@H]1O [PETG, phenylethyl β-D-thiogalactoside, reference compound] |  | IC50 (Fig 1, 100 μM RBG, β-Gal 150 μg/L, 25°C, three replicates, lead peptides previously selected from microarray [13], read-out: IC50 of peptide inhibition of β-Gal): ~35 µM
2 | KKQGYYYKLGSC [shorter C-terminus motif of PEP-2 from truncation analysis] |  | normalized inhibition of β-Gal, truncation scan of PEP-2 (Fig 3B, normalized to the inhibition percentage value of PEP-2 at 50 μM, three replicates): inhibited β-Gal
3 | PASMFSYFKKQGYYYKLGSC [PEP-2] | ~13 | 
4 | RVFKRYKRWLHVSRYYFGSC [PEP-1] | ~1.6 | 
5 | FKRYRRWGSC [nPEP-1-45] | ~2.5 | 
6 | FKRYKRWGSC [nPEP-1] | ~4 | 
